The source of these data is EP4810052A2, “HCRHR2 SELECTIVE POLYPEPTIDES” (Gubra A/S, priority 2023, dated 2026).

What is called EC50 is the concentration at which the effect is half-maximal. For orientation: bioavailability means the share of a dose that reaches the circulation, judged against a reference dose that is usually intravenous. As usually defined, the Cmax is the highest concentration seen after dosing. Usually Tmax stands for the time at which the peak concentration occurs.

Starred links: 1 amine or outer side, 2 acyl side, 3 side chain; linkers in the order of their positions; H or OH if unused. Non-standard residues stand in square brackets, D forms with d. Residues, ends and D or L forms follow the SMILES beside them. Groups on a side chain read outwards from the residue. *: point of attachment. C20 diacid = O=C(O)CCCCCCCCCCCCCCCCCCC(=O)*; γGlu = O=C(O)[C@H](CCC(=O)[*:2])N[*:1]; Nle = CCCC[C@H](N)C(=O)O; AEEA = NCCOCCOCC(=O)O; Aib = CC(C)(N)C(=O)O

One data set concerns the target T1, rCRHR2 (Rattus norvegicus, UniProt P47866).
T1 construct: DYK (FLAG); host or cells: CHO-K1, transiently transfected
The data set can be described thus: cAMP potency, transiently transfected CHO-K1 cells, rCRHR2. The format is cell-based. The note with it: transiently transfected CHO-K1, average n=3; read-out: Transient cell system EC50 (nM) rCRHR 2. The protocol: Selected peptides were tested for potency on different species (mouse, rat, porcine) using transiently transfected CHO-K1 cells using the general procedure.

For another data set, the target named is T2, hCRHR2b (Homo sapiens, UniProt Q13324).
T2 construct: DYK (FLAG); host or cells: CHO-K1, transiently transfected
T2 sequence (Q13324 1-438 isoform Q13324-2): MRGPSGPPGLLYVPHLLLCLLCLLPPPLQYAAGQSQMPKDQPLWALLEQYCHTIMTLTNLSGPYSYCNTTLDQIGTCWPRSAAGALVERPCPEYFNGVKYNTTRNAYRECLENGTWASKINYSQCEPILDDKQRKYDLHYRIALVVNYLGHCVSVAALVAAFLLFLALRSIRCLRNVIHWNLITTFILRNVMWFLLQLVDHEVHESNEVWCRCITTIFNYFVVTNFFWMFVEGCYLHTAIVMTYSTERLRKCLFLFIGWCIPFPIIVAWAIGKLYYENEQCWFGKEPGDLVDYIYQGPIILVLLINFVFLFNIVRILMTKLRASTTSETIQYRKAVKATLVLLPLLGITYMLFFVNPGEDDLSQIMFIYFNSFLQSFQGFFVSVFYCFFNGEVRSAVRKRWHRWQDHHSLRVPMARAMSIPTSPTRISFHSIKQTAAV
The experiment in a line: cAMP potency, transiently transfected CHO-K1 cells, hCRHR2b. The class given is cell-based. The note with it: transiently transfected CHO-K1, average n=3; read-out: Transient cell system EC50 (nM) hCRHR 2b.

The nature of a further data set: PK in minipigs. The note with it: male, Göttingen, minipig, in vivo. The protocol: Pharmacokinetics studies were determined in male Göttingen minipigs from Ellegaard Göttingen Minipigs A/S. Animals were acclimatised for at least 7 days before placed on study. The minipigs had prior to study been surgically implanted with central venous catheters inserted which were used for blood sampling. Animals were housed under a 12/12 h dark-light cycle with ad libitum access to domestic water and animals were fed a commercially standard maintenance diet twice daily.
Test compounds where administrated either as a cassette or as a single compound. Test compounds were administrated by a single intravenous injection or short infusion (5-10 min) through the implanted catheter or a single subcutaneously injection. The subcutaneously injection was given in the mid neck between ear and scapula with a stopper on the needle, allowing 0.5 cm of the needle to be inserted.Plasma concentration-time profiles employing 12-16 sampling points were obtained from each animal. As an example, blood samples were collected on the following times: 0 (predose), 0.17, 0.33, 0.5, 1, 2, 5, 6, 24, 48, 72, 92, 168, 240 and 336 hrs post administration. Approximately 2 mL blood was drawn from the central catheter from each animal at each sampling point. Blood samples were taken in K2 or K3 EDTA tubes. Blood was kept on ice for maximum 30 min before centrifugation (10 min, 4°C, 2000 x g). Approximately 200 µL plasma samples was transferred to a Micronic tube and stored at -20° or lower.
Pharmacokinetics parameters were calculated by non-compartmental analysis (NCA) of the individual plasma concentrations-time profile from the animals. The log-linear trapezoidal method was used for estimation of AUC and AUMC. The terminal T½ was determined as In(2)/λz where λz is the first order rate constant as determined by the terminal log-linear part of the curve.
Plasma concentrations were measured by LC-MSMS using electrospray ionization and multiple reaction monitoring. Calibration standards and quality control (QC) samples were prepared in specie match matrix. 15 µL calibration standards, QC and study samples were extracted by protein precipitation using 60 µL methanol followed by addition of 45 µL milliQ water. Samples were shaken (800 rpm) at room temperature for 5 min before centrifugation (2570×g, 40 min, 4°C) and the supernatant was transferred to a LoBind PCR plate. Samples were analysed on a Thermo Triscend UHPLC system coupled to a Sciex API 6500+ mass spectrometer. Samples were subject to online SPE clean-up on a HLB column (1×50 mm, Waters) before loaded onto a Aeris Peptide XB C18 column (3.6 µm, 100 Å, 2×50 mm, Phenomenex) analytical column. The mobile phases consisted of acetonitrile and milliQ H2O both containing 0.1% V/V formic acid. The flow rate was 0.60 mL/min and the column was kept at room temperature.

T1 sequence (P47866 whole entry): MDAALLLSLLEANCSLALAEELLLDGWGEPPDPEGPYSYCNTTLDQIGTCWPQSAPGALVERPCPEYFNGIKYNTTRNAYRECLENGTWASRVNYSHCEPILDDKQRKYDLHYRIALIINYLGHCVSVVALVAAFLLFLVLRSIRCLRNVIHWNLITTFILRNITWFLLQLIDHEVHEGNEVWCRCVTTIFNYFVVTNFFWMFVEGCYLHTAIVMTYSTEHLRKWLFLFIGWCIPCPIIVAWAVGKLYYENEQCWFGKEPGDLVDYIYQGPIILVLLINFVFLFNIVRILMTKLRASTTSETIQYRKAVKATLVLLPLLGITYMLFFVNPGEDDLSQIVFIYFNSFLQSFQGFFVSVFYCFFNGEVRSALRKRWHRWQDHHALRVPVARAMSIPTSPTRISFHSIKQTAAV

Consider `CCCC[C@H](NC(=O)[C@@H](NC(=O)[C@H](CCC(=O)O)NC(=O)[C@H](C)NC(=O)[C@H](CC(N)=O)NC(=O)C(C)(C)NC(=O)[C@H](CCCCNC(=O)COCCOCCNC(=O)COCCOCCNC(=O)CC[C@H](NC(=O)CC[C@H](NC(=O)CCCCCCCCCCCCCCCCCCC(=O)O)C(=O)O)C(=O)O)NC(=O)[C@H](C)NC(=O)[C@H](CCC(N)=O)NC(=O)[C@H](CCC(=O)O)NC(=O)[C@H](CCCNC(=N)N)NC(=O)[C@H](C)NC(=O)[C@H](C)NC(=O)[C@H](CCCNC(=N)N)NC(=O)[C@H](C)NC(=O)[C@H](CCCNC(=N)N)NC(=O)[C@H](C)NC(=O)[C@H](CCC(N)=O)NC(=O)[C@H](CO)NC(=O)[C@H](CC(C)C)NC(=O)[C@H](CC(C)C)NC(=O)[C@@H](NC(=O)[C@H](CCC(N)=O)NC(=O)[C@H](CC(C)C)NC(=O)[C@H](CC(C)C)NC(=O)CNC(=O)[C@@H](NC(=O)[C@@H]1CCCN1C(=O)[C@@H](NC(=O)[C@H](CC(=O)O)NC(=O)[C@H](CC(C)C)NC(=O)[C@H](CO)NC(=O)[C@H](CC(C)C)NC(=O)[C@@H](NC(=O)[C@@H]1CCCN1)C(C)C)C(C)C)[C@@H](C)CC)[C@@H](C)CC)[C@@H](C)CC)C(=O)N[C@@H](C)C(=O)N[C@@H](CCC(=O)O)C(=O)N[C@H](C(N)=O)C(C)C` [SEQ ID NO: 238] (H-PVLSLDVPIGLLQILLSQARARAAREQAK([AEEA-AEEA-γGlu-γGlu-C20 diacid])[Aib]NAEI[Nle]AEV-NH2), for which the EC50 on rCRHR2 worked out at 0.067 nM. Further, on hCRHR2b, the half-maximal effective concentration (EC50) is 0.016 nM. In addition, in the data set “PK in minipigs” (iv, Pig, 5.8 nmol/kg i.v., read-out: T½ (converted)), the half-life was 212 h. For the same compound, the bioavailability in the data set “PK in minipigs” (sc) turned out to be 86%. In the data set “PK in minipigs” (sc, Pig, 6.0 nmol/kg s.c), the highest concentration (Cmax) turned out to be 44 nM and the Tmax was found to be 48 h.
